Reference: ChEMBL document CHEMBL4145548, “Pyrimidine-chloroquinoline hybrids: Synthesis and antiplasmodial activity” (Eur J Med Chem, 2018)
In brackets after ≈: the same amount, converted by molar mass. Activity calls are given as the source filed them. The rule behind the calls is not given here.

Legend:
Plasmodium falciparum [1] = assay: microbe, parasite or virus in culture; details: NF54
Description: Antiplasmodial activity against chloroquine-sensitive Plasmodium falciparum NF54 by LDH release assay

Plasmodium falciparum [2] = assay: Potency index, ratio of chloroquine IC50 to compound IC50 for antiplasmodial activity against chloroquine-resistant Plasmodium falciparum Dd2; type: functional
in vitro = details: monkey, Vero cells
Description: Selectivity index, ratio of IC50 for African green monkey Vero cells to IC50 for chloroquine-sensitive Plasmodium falciparum NF54

Vero = assay: Cytotoxicity against African green monkey Vero cells assessed as reduction in cell viability by MTT assay; type: cell-based; details: Chlorocebus sabaeus
Plasmodium falciparum [3] = assay: microbe, parasite or virus in culture; details: Dd2
Description: Antiplasmodial activity against chloroquine-resistant Plasmodium falciparum Dd2 by LDH release assay

[4] = Solubility in n-octanol at pH 7.4 after 24 hrs by HPLC analysis; type: physicochemical
[5] = n-octanol-phosphate buffer distribution coefficient, log D of the compound at pH 7.4 after 1 hr by HPLC method; type: physicochemical
[6] = Aqueous solubility in pH 7.4 PBS buffer after 24 hrs by HPLC analysis; type: physicochemical
Calf thymus DNA [7] = assay: Binding affinity to calf thymus DNA assessed as change in melting temperature at DNA to compound ratio of 5:1; type: nucleic-acid assay; details: Bos taurus
Heme [8] = assay: Binding affinity to monomeric heme at pH 5.6 by titration-based UV-vis spectrophotometric analysis
Calf thymus DNA [9] = assay: Binding affinity to calf thymus DNA at 17.1 uM by fluorimetry analysis; type: nucleic-acid assay; details: Bos taurus
mu-oxodimeric heme [10] = assay: Binding affinity to mu-oxodimeric heme at pH 5.8 by titration-based UV-vis spectrophotometric analysis
DNA [11] = assay: Binding affinity to Escherichia coli pUC18 DNA at 17.1 uM by fluorimetry analysis; type: nucleic-acid assay
Heme [12] = assay: Binding affinity to monomeric heme assessed as decrease in soret band intensity up to 40 uM at pH 5.6 to 7.4 by titration-based UV-vis spectrophotometric analysis
Calf thymus DNA [13] = assay: Binding affinity to calf thymus DNA at 66 uM by UV-visible absorption spectral analysis; type: nucleic-acid assay; details: Bos taurus
Heme [14] = assay: Binding affinity to monomeric heme at pH 7.4 by titration-based UV-vis spectrophotometric analysis
DNA [15] = assay: Binding affinity to Escherichia coli pUC18 DNA by UV-visible absorption spectral analysis; type: nucleic-acid assay
Heme [16] = assay: Binding affinity to monomeric heme at 5 umol by HRMS mass spectrum analysis
unidentified = assay: Inhibition of acetate buffer-initiated beta-hematin polymerization at 1.2 equiv measured after 1 hr by FT-IR spectroscopic method
mu-oxodimeric heme [17] = assay: Binding affinity to mu-oxodimeric heme assessed as decrease in soret band intensity up to 26.7 uM at pH 5.8 by titration-based UV-vis spectrophotometric analysis
Calf thymus DNA [18] = assay: Binding affinity to calf thymus DNA by UV-visible absorption spectral analysis; type: nucleic-acid assay; details: Bos taurus
Calf thymus DNA [19] = assay: Binding affinity to calf thymus DNA assessed as association constant by Benesi-Hildebrand equation analysis; type: nucleic-acid assay; details: Bos taurus
Heme [20] = assay: Binding affinity to monomeric heme by 1H NMR method

Row | SMILES | IC50 (Plasmodium falciparum [1]) | Ratio IC50 (Plasmodium falciparum [2]) | IC50 (Vero) | solubility at 24 h [4] | logD at 1 h [5] | solubility at 24 h [6] | further results
1 | C[C@H]1[C@H](OC(=O)CCC(=O)O)O[C@@H]2O[C@@]3(C)CC[C@H]4[C@H](C)CC[C@@H]1[C@@]24OO3 [ARTESUNATE] | < 5200 nM |  |  |  |  |  | 
2 | Clc1ccc2c(NCCCNc3ccnc(N4CCOCC4)n3)ccnc2c1 |  | 3.2 |  |  |  |  | 
3 | Cc1nc(OCc2cn(CCNc3ccnc4cc(Cl)ccc34)nn2)nc(-c2ccc([N+](=O)[O-])cc2)c1C(=O)OC(C)C | 180 nM |  | 150000 nM | 54.4 µM (≈ 32.8 µg/mL) | 0.88 | 7.03 µM (≈ 4.24 µg/mL) | selectivity ratio (in vitro): 833; IC50 (Plasmodium falciparum [3]): 990 nM
4 | Clc1ccc2c(NCCCNc3ccnc(Cl)n3)ccnc2c1 |  | 3.2 |  |  |  |  | 
5 | Clc1ccc2c(NCCCCCCCNc3nccc(Cl)n3)ccnc2c1 |  | 3.2 |  |  |  |  | 
6 | COC(=O)c1c(C)nc(OCc2cn(CCCNc3ccnc4cc(Cl)ccc34)nn2)nc1-c1ccccc1 | 1010 nM |  | 156000 nM | 34.2 µM (≈ 18.6 µg/mL) | 0.78 | 5.64 µM (≈ 3.07 µg/mL) | selectivity ratio (in vitro): 154; IC50 (Plasmodium falciparum [3]): 1650 nM
7 | CC[C@H]1CN2CCc3cc(OC)c(OC)cc3[C@@H]2C[C@@H]1C[C@H]1NCCc2cc(OC)c(OC)cc21 [EMETINE] |  |  | 176 nM |  |  |  | 
8 | Clc1ccc2c(NCCCNc3nccc(N4CCCC4)n3)ccnc2c1 |  | 3.2 |  |  |  |  | 
9 | Clc1ccc2c(NCCCNc3nccc(N4CCCCC4)n3)ccnc2c1 |  | 3.2 |  |  |  |  | 
10 | CCOC(=O)c1c(C)nc(OCc2cn(CCNc3ccnc4cc(Cl)ccc34)nn2)nc1C | 2490 nM |  | > 207000 nM | 35.6 µM (≈ 17.2 µg/mL) | 0.27 | 19.1 µM (≈ 9.21 µg/mL) | selectivity ratio (in vitro): > 83; IC50 (Plasmodium falciparum [3]): 8140 nM
11 | Clc1ccc2c(NCCCCCCCCNc3nccc(Cl)n3)ccnc2c1 |  | 3.2 |  |  |  |  | 
12 | Clc1ccc2c(NCCCCNc3nccc(Cl)n3)ccnc2c1 |  | 3.2 |  |  |  |  | 
13 | CCN(CC)CCCC(C)Nc1ccnc2cc(Cl)ccc12 (stereo not given) |  |  |  |  |  |  | ΔTm (Calf thymus DNA [7]): 4 °C
14 | Cc1nc(OCc2cn(-c3ccnc4cc(Cl)ccc34)nn2)nc(-c2ccc([N+](=O)[O-])cc2)c1C(=O)OC(C)C | 7860 nM |  |  | 60.5 µM (≈ 33.9 µg/mL) | 1.12 | 4.54 µM (≈ 2.54 µg/mL) | 
15 | Clc1ccc2c(NCCCOc3nccc(Cl)n3)ccnc2c1 |  | 3.2 |  |  |  |  | 
16 | CCOC(=O)c1c(C)nc(OCc2cn(CCNc3ccnc4cc(Cl)ccc34)nn2)nc1-c1ccccc1 | 1490 nM |  | 149000 nM | 21.7 µM (≈ 11.8 µg/mL) | 0.81 | 3.3 µM (≈ 1.8 µg/mL) | selectivity ratio (in vitro): 100; IC50 (Plasmodium falciparum [3]): 2520 nM
17 | Cc1nc(OCc2cn(-c3ccnc4cc(Cl)ccc34)nn2)nc(-c2ccccc2[N+](=O)[O-])c1C(=O)OC(C)C | 16100 nM |  |  | 37.4 µM (≈ 20.9 µg/mL) | 1.1 | 2.93 µM (≈ 1.64 µg/mL) | 
18 | Clc1ccc2c(NCCCCCCCCNc3ccnc(Cl)n3)ccnc2c1 |  | 3.2 |  |  |  |  | 
19 | COC(=O)c1c(C)nc(OCc2cn(-c3ccnc4cc(Cl)ccc34)nn2)nc1-c1ccccc1 | 15800 nM |  |  | 16.3 µM (≈ 7.96 µg/mL) | 0.69 | 3.31 µM (≈ 1.61 µg/mL) | 

Row | SMILES | IC50 (Plasmodium falciparum [1]) | Ratio IC50 (Plasmodium falciparum [2]) | IC50 (Vero) | solubility at 24 h [4] | logD at 1 h [5] | solubility at 24 h [6] | further results
20 | Cc1nc(OCc2cn(CCNc3ccnc4cc(Cl)ccc34)nn2)nc(-c2ccccc2[N+](=O)[O-])c1C(=O)OC(C)C | 530 nM |  | 145000 nM | 16.7 µM (≈ 10.1 µg/mL) | 0.86 | 2.3 µM (≈ 1.39 µg/mL) | selectivity ratio (in vitro): 274; IC50 (Plasmodium falciparum [3]): 1080 nM
21 | Clc1ccnc(N2CCOCC2)n1 |  | 3.2 |  |  |  |  | 
22 | Clc1ccc2c(NCCCNc3nccc(N4CCOCC4)n3)ccnc2c1 |  | 3.2 |  |  |  |  | 
23 | Cc1nc(OCc2cn(-c3ccnc4cc(Cl)ccc34)nn2)nc(-c2ccccc2)c1C(=O)OC(C)C | 14000 nM |  |  | 52.5 µM (≈ 27 µg/mL) | 1.46 | 1.78 µM (≈ 0.917 µg/mL) | 
24 | Clc1ccc2c(NCCCNc3ccnc(N4CCCCC4)n3)ccnc2c1 |  | 3.2 |  |  |  |  | 
25 | CCOC(=O)c1c(C)nc(OCc2cn(-c3ccnc4cc(Cl)ccc34)nn2)nc1C | 84200 nM |  |  | 17.8 µM (≈ 7.8 µg/mL) | 0.39 | 7.18 µM (≈ 3.15 µg/mL) | 
26 | Cc1nc(OCc2cn(CCNc3ccnc4cc(Cl)ccc34)nn2)nc(-c2ccccc2)c1C(=O)OC(C)C | 640 nM |  | 149000 nM | 53.1 µM (≈ 29.6 µg/mL) | 1.21 | 3.21 µM (≈ 1.79 µg/mL) | selectivity ratio (in vitro): 232; IC50 (Plasmodium falciparum [3]): 2000 nM
27 | Clc1ccc2c(NCCCCCCCCCCNc3nccc(Cl)n3)ccnc2c1 |  | 3.2 |  |  |  |  | 
28 | CCOC(=O)c1c(C)nc(OCc2cn(CCCNc3ccnc4cc(Cl)ccc34)nn2)nc1-c1ccccc1 | 890 nM |  | 153000 nM | 48.3 µM (≈ 27 µg/mL) | 1.19 | 3.11 µM (≈ 1.74 µg/mL) | selectivity ratio (in vitro): 172; IC50 (Plasmodium falciparum [3]): 1370 nM
29 | Clc1ccc2c(NCCCNc3nccc(N4CCNCC4)n3)ccnc2c1 |  | 3.2 |  |  |  |  | 
30 | Clc1ccc2c(NCCNc3nccc(Cl)n3)ccnc2c1 |  | 3.2 |  |  |  |  | 
31 | Cc1nccc(NCCNc2ccnc3cc(Cl)ccc23)n1 |  | 3.2 |  |  |  |  | 
32 | Cc1nc(OCc2cn(CCCNc3ccnc4cc(Cl)ccc34)nn2)nc(-c2ccccc2)c1C(=O)OC(C)C | 330 nM |  | 28500 nM | 63.5 µM (≈ 36.3 µg/mL) | 1.72 | 1.21 µM (≈ 0.692 µg/mL) | selectivity ratio (in vitro): 86.4; IC50 (Plasmodium falciparum [3]): 610 nM
33 | Cc1nc(OCc2cn(CCCNc3ccnc4cc(Cl)ccc34)nn2)nc(-c2ccccc2[N+](=O)[O-])c1C(=O)OC(C)C | 600 nM |  | 23400 nM | 12.1 µM (≈ 7.49 µg/mL) | 1.31 | 0.58 µM (≈ 0.358 µg/mL) | selectivity ratio (in vitro): 38.9; IC50 (Plasmodium falciparum [3]): 860 nM
34 | CCOC(=O)c1c(C)nc(OCc2cn(-c3ccnc4cc(Cl)ccc34)nn2)nc1-c1ccccc1 | 12200 nM |  |  | 66.2 µM (≈ 33.2 µg/mL) | 1.08 | 5.47 µM (≈ 2.74 µg/mL) | 
35 | CCOC(=O)c1c(C)nc(OCc2cn(CCCNc3ccnc4cc(Cl)ccc34)nn2)nc1C | 700 nM |  | > 201000 nM | 21.2 µM (≈ 10.5 µg/mL) | 0.42 | 8.01 µM (≈ 3.97 µg/mL) | selectivity ratio (in vitro): > 287; IC50 (Plasmodium falciparum [3]): 1110 nM
36 | Clc1ccc2c(NCCCCCCCCCCCCNc3nccc(Cl)n3)ccnc2c1 |  | 3.2 |  |  |  |  | 
37 | Cc1nc(OCc2cn(CCCNc3ccnc4cc(Cl)ccc34)nn2)nc(-c2ccc([N+](=O)[O-])cc2)c1C(=O)OC(C)C | 48 nM |  | 15200 nM | 14.9 µM (≈ 9.18 µg/mL) | 1.43 | 0.55 µM (≈ 0.339 µg/mL) | log K (Heme [8]): 4.27; Activity (Calf thymus DNA [9]): Active; selectivity ratio (in vitro): 318; log K (mu-oxodimeric heme [10]): 5.43; Activity (DNA [11]): Active; Activity (Heme [12]): Active; Activity (Calf thymus DNA [13]): Active; log K (Heme [14]): 4.68; log K (DNA [15]): 3.92; Activity (Heme [16]): Active; inhibition (unidentified): Active; Activity (mu-oxodimeric heme [17]): Active; log K (Calf thymus DNA [18]): 3.74; log K (Calf thymus DNA [19]): 2.29; IC50 (Plasmodium falciparum [3]): 4590 nM; ΔTm (Calf thymus DNA [7]): 2.5 °C; Activity (Heme [20]): Active
38 | COC(=O)c1c(C)nc(OCc2cn(CCNc3ccnc4cc(Cl)ccc34)nn2)nc1-c1ccccc1 | 10400 nM |  |  | 44.7 µM (≈ 23.7 µg/mL) | 0.58 | 11.3 µM (≈ 5.99 µg/mL) | 
